The source of these data is US9656953B2, “Inhibition of cell proliferation” (University of South Florida, priority 2005, dated 2017).

For one experiment, the system named is Saos-2 cells. Briefly: BrdU incorporation, S-phase entry, Saos-2. Format: cell-based. The note with it: 20 μM, 18 hours, Rb null. As for the experimental part:
(§1) Proliferation assays. Bromodeoxyuridine (BrdU) labeling kits were obtained from Roche Biochemicals (Indianapolis, Ind.). Cells were plated in poly-D-lysine coated chamber slides at a density of 10,000 cells per well and rendered quiescent by serum starvation for 24 hours. Cells were then re-stimulated with serum in the presence or absence of the indicated drugs for 18 h. S-phase cells were visualized by microscopy and quantitated by counting 3 fields of 100 in quadruplicate.
(§2) Given the selectivity of 3a described in FIGS. 1 and 2 above for disrupting the Rb:Raf-1 interaction, it was examined if 3a can inhibit the proliferation of cells and whether such an inhibition required a functional Rb gene.
On the technique in general: Dividing cells build labelled thymidine or BrdU into new DNA.

For a further experiment, the system named is U2-OS cells. In words: BrdU incorporation, S-phase entry, U2-OS. Format: cell-based. Conditions: 20 μM, 18 hours, Rb wild type. As for the experimental part:
as §1, §2

For another experiment, the system named is A375 melanoma cell line. Briefly: BrdU incorporation, S-phase entry, A375. The experiment is classed as cell-based. The note with it: V600E B-Raf. The protocol:
as §1
A V600E mutation in the B-Raf oncogene is associated with 66% of melanomas and leads to an over-activation of phospho-Erk signaling. The A375 melanoma cell line harbors the V600E B-Raf mutation. Using the methods of the preceding examples, 3a was inhibited 58% of S-phase entry in this cell line.

The target in experiment [1] is T1, binding of Rb to Raf-1 in A-549 cells (Homo sapiens, UniProt P04049+P06400).
T1 construct: endogenous in cells; host or cells: A549
T1 sequence (P06400 whole entry): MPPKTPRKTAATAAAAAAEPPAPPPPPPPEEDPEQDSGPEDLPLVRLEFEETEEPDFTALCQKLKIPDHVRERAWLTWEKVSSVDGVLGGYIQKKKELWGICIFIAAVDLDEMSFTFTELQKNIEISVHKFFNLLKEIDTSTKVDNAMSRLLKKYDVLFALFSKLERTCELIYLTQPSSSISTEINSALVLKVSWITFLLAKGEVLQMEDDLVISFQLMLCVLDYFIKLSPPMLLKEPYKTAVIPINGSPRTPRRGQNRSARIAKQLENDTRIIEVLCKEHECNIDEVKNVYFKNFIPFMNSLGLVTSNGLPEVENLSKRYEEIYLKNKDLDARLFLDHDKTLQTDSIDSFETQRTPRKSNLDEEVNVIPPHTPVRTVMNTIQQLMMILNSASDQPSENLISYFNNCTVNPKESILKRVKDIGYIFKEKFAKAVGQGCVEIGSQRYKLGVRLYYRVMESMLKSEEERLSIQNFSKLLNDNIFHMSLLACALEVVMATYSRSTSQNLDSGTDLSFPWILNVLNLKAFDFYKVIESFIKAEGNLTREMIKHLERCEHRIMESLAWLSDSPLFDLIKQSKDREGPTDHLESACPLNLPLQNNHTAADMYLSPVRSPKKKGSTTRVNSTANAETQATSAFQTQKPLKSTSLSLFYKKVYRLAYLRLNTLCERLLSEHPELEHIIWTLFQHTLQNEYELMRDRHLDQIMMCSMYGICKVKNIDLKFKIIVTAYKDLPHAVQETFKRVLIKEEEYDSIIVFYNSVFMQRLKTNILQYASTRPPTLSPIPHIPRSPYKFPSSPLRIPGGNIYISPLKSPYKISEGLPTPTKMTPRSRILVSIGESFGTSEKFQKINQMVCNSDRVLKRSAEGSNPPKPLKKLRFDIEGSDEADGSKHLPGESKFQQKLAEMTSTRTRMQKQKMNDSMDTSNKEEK
T1 sequence (P04049 whole entry): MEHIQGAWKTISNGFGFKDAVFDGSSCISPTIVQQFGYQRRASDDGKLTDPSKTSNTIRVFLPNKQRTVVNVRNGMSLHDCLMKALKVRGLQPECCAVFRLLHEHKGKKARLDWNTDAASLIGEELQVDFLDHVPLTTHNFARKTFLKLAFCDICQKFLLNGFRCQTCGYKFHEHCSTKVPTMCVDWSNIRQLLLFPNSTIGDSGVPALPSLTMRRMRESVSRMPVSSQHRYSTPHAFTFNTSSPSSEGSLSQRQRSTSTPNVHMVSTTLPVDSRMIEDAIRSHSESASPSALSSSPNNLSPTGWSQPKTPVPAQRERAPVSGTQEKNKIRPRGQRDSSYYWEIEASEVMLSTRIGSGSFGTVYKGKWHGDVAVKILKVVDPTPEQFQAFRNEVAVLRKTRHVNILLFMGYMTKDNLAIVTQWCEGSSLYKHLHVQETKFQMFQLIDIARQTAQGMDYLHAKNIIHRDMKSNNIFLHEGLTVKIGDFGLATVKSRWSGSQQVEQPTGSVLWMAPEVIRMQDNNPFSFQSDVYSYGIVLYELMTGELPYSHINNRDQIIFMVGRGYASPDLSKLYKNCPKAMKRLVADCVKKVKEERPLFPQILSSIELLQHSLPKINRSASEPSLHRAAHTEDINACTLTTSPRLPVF
In words: IP-western, serum stimulated A-549 cells, Rb:Raf-1. The experiment is classed as cell-based. The source says: Lysate preparation, pmmunoprecipitation, and pestern plotting.

Experiment [2] concerns the target T2, Rb/E2F1 interaction in tumor xenografts (Homo sapiens, UniProt P06400+Q01094).
T2 construct: from tissue; host or cells: A549 xenograft tumors from nude mice
Briefly: IP-Western of tumor lysates, Rb/E2F1. The note with it: both doses. Format: in vivo, nude mice.

Another experiment concerns cyclin D kinase activity. Briefly: In vitro kinase assay, cyclin D. Format: biochemical. As for the experimental part:
(§3) In vitro kinase assay. The kinase reaction for Raf-1 was carried out with 100 nanograms (ng) of Raf-1 (Upstate Signaling, Charlottesville, Va.), 0.5 μg of full-length Rb protein (QED Bioscience, San Diego, Calif.) as the substrate, 10 μM ATP, 10 μCi of [γ-^32P] ATP in the kinase assay buffer in the presence or absence of the drugs at 30° C. for 30 minutes. Cyclin D and E kinase assays are described in (Dasgupta 2004).

The subject of experiment [3] is H1650 non-small cell lung cancer cell line. In words: BrdU incorporation, S-phase entry, H1650. The note with it: EGFR mutant NSCLC. The experiment is classed as cell-based. As for the experimental part: as §1
Because many cancers contain more than one mutation in tumor suppressor genes or oncogenes, we determined the ability of 3a to inhibit proliferation in cell lines containing alterations in key regulatory genes.

The subject of the next experiment is SK-MEL-5 cells. In words: Soft agar assay, SK-MEL-5. The experiment is classed as cell-based. The protocol: Soft Agar Assay. Soft agar assays were done in triplicate in 12-well plates (Corning, Corning N.Y.). First, the bottom layer of agar (0.6%) was allowed to solidify at room temperature. Next the top layer of agar was (0.3%) was mixed with 5,000 cells per well and the indicated drug. The drugs were added twice weekly in complete media to the agar wells. Colonies were quantified by staining with MTT (3-(4,5-Dimethylthiazol-2-yl)-2,5-diphenyltetrazolium bromide) 1 mg/mL for 1 hour at 37° C.
Experiments were also carried out to examine the effect of 3a in inhibiting the adherence-independent growth of cancer cells in soft agar.

Experiment [4] concerns U251MG glioblastoma cell line. In words: BrdU incorporation, S-phase entry, U251MG. The note with it: null for p16 and PTEN. Format: cell-based. The protocol: as §1
For the next experiment, the target named is T3, Raf-1 (Homo sapiens, UniProt P04049).
T3 construct: purchased Upstate Signaling, Charlottesville, Va; (Raf-1); QED Bioscience, San Diego, Calif; (Rb)
T3 sequence (P04049 whole entry): as above
In words: In vitro kinase assay, Raf-1. Format: biochemical. As for the experimental part: as §3

The test system of the next experiment is A549 cells. In words: BrdU incorporation, S-phase entry, A549. The experiment is classed as cell-based, human. Conditions: 20 μM. The protocol:
as §1
To further confirm that 3a requires a functional Rb to inhibit tumor cell proliferation, A549 cells (human epithelial lung carcinoma) were stably transfected with two different shRNA constructs (sh6 and sh8) to knock down Rb expression.

The subject of experiment [5] is A549 cells infected with Ad-cyclin D. Briefly: BrdU incorporation, A549 infected with Ad-cyclin D. Format: cell-based, human. The note with it: 20 μM of 3a for 36 h. The protocol: as §1
To this end, A549 cells were infected with Ad-E2F1 or Ad-cyclin D, in the presence of 20 μM of 3a for 36 h. Ad-GFP infected cells were used as a control.

Another experiment deals with T4, Rb:Raf-1 binding (Homo sapiens, UniProt P04049+P06400).
T4 construct: a glutathione S-transferase (GST) Raf-1 (1-149aa) overnight at 4° C; made in house
T4 sequence (P04049 1-149 limits assumed): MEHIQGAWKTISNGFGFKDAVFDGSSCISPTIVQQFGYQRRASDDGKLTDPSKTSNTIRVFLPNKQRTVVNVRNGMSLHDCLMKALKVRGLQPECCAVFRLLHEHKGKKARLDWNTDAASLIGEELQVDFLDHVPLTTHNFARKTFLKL
T4 sequence (P06400 whole entry): as the sequence (P06400 whole entry) above
Briefly: GST-Rb/GST-Raf-1 ELISA. The note with it: concentration that inhibits the Rb:Raf-1 binding by 50%, triplicate; read-out: IC50 (nM), inhibition of the Rb:Raf-1 binding. As for the experimental part: In vitro library screening assays. Enzyme Linked ImmunoSorbent Assay (ELISA) 96-well plates were coated with 1 μg/mL of a glutathione S-transferase (GST) Raf-1 (1-149aa) overnight at 4° C. Subsequently the plates were blocked and GST Rb at 20 μg/mL was rotated at room temperature (RT) for 30 minutes in the presence or absence of the compounds at 20 micromolar (μM). GST-Rb +/− compounds were then added to the plate and incubated for 90 minutes (min) at 37° C. The amount of Rb bound to Raf-1 was detected by Rb polyclonal antibody (Santa Cruz Biotechnology, Santa Cruz, Calif.) 1:1000 incubated for 60 min at 37° C. Donkey-anti-rabbit-IgG-HRP (1:10,000) was added to the plate and incubated at 37° C. for 60 minutes. The color was developed with orthophenylenediamine (Sigma, St. Louis, Mo.) and the reaction was terminated with 3 molar (M) H2SO4. Absorbance was read at 490 nanometers (nm). To determine disruption of Rb to E2F1, Phb, or HDAC1 the above protocol was used with the exception of coating GST Rb on the ELISA plate and adding the drugs in the presence or absence of GST E2F1, Phb, or HDAC1. […] Prohibitin monoclonal antibody was used at 1:1000 to detect the amount of Rb bound to Prohibitin. For disruption of MEK-Raf-1 binding ELISAs, Raf-1 1 microgram/milliliter (μg/mL) was coated on the plate and GST-MEK (20 μg/mL) was incubated +/− the compounds for 30 minutes at room temperature. Mek1 polyclonal antibody was used at 1:1000 to detect the binding of Raf-1 to Mek1. The IC50 concentrations for the Rb:Raf-1 inhibitors were determined by plotting with Origin 7.5 software (Origin, Northampton, Mass.).
A screen was developed to identify small molecule inhibitors of the Rb:Raf-1 interaction. A diversity set, comprising 1981 compounds (National Cancer Institute, Bethesda, Md.) was examined using a glutathione S-transferase-retinoblastoma/glutathione S-transferase-Raf-1 kinase Enzyme-Linked ImmunoSorbent Assay screen (GST-Rb/GST-Raf-1 ELISA).
Background: ELISA stands for enzyme-linked immunosorbent assay.

What is called IC50 is the concentration needed to halve the response being measured.

The structures appear in SMILES notation. “Also recorded” adds a separate entry of the source.

T2 sequence (P06400 whole entry): as above
T2 sequence (Q01094 whole entry): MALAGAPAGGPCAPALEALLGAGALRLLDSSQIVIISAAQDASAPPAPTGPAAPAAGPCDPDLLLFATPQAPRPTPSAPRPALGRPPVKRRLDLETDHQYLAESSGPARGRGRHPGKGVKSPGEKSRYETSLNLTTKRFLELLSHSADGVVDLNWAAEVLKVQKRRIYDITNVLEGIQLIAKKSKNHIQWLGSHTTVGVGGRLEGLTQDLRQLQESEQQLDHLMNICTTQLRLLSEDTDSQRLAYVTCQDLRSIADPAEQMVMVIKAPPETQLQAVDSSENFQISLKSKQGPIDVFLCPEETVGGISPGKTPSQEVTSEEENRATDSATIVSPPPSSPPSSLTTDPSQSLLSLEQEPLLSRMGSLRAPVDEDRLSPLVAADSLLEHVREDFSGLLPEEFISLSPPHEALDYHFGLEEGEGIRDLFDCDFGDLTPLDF

Turning to `Cl.N=C(N)SCc1ccc(Cl)cc1Cl` [Compound 3a], the “S-phase entry (BrdU), Saos-2” value in the experiment on Saos-2 cells was “little effect”. Further, the “S-phase entry (BrdU), U2-OS” value with U2-OS cells was “inhibited S-phase entry”. Further, the “inhibition of S-phase entry, A375” value in the experiment on A375 melanoma cell line turned out to be 58%. Further, the “serum stimulated binding of Rb to Raf-1” value in experiment [1] is reported as “inhibited”. Also, in [2], the “Rb/E2F1 interaction in tumor lysates” value is “without inhibiting Rb-E2F1 interaction; also recorded: not Rb/E2F1 interaction”. Besides, in the experiment with cyclin D kinase activity, the “cyclin D kinase activity” value is “does not inhibit; also recorded: did not affect the kinase activities”. In [3], the “inhibition of S-phase entry, H1650” value worked out at 90%. Besides, the “adherence-independent growth in soft agar, SK-MEL-5” value with SK-MEL-5 cells is “significantly inhibited the growth”. In experiment [4], the “S-phase entry, U251MG” value is “inhibited S-phase entry”. In addition, the Raf-1 kinase activity result on Raf-1 is “does not inhibit; also recorded: did not affect the kinase activities”. The “S-phase entry (BrdU), parental A549” value in the experiment with A549 cells is on record as “arrests wild-type A549 cells; also recorded: very effective”. The “rescue of anti-proliferative activity by cyclin D over expression” value in experiment [5] was “only a partial effect”. Also, the IC50 on Rb:Raf-1 binding was determined as 77 nM.
